Tested on: patients with mild to moderate hypertension
Assay: Clinical study: LDL cholesterol
Assay type: in vivo
Method: The total, HDL, LDL and VLDL cholesterol levels were measured using the procedures described below:
The low density lipoprotein cholesterol is computed by subtracting from the cholesterol value determined above one-fifth of the triglycerides and the HDL cholesterol value determined above. This LDL computation is valid only if the triglyceride level is less than 400 mg/dL.

CCCCc1nc(Cl)c(CO)n1Cc1ccc(-c2ccccc2-c2nnn[nH]2)cc1.[K] [Losartan, 2-n-butyl-4-chloro-1-[(2'-(tetrazol-5-yl)-1,1'-biphenyl-4-yl)-methyl]-1H-imidazole-5-methanol potassium salt]
LDL CHOLESTEROL, TREATMENT MEAN (LOS 50, week 12, N 102): 123.5 mg/dL
LDL CHOLESTEROL, CHANGE MEAN (LOS 50, week 12, N 102, change from baseline 127.7): -4.2 mg/dL
LDL CHOLESTEROL, TREATMENT MEAN (LOS 50/100, week 12, N 95): 117.9 mg/dL
LDL CHOLESTEROL, CHANGE MEAN (LOS 50/100, week 12, N 95, change from baseline 126.3): -8.4 mg/dL
